According to US12077503B2, “Substituted cyclic amides and their use as herbicides” (FMC CORPORATION, priority 2015, dated 2024):

Tests used:
Format in all cases: in vivo
corn (Zea mays) [1] = assay: Test G Post-Emergence Protocol; conditions: Zea mays, post-emergence, 312 h, read-out: Corn damage rating; for plant injury at 15.625 g/ha: 15.625 g ai/ha, evaluated after 13 days (100=total damage to plant; 0=no damage to plant); for plant injury at 62.5 g/ha: 62.5 g ai/ha; for plant injury at 62.5 g/ha / plant injury at 250 g/ha: evaluated after 13 days, 100=total damage to plant, 0=no damage to plant; for plant injury at 250 g/ha: 250 g ai/ha
Procedure, shortened: (§1)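 Sow in soil; grow 8 d (24/16 °C, 14 h light, 65% humidity); spray 15.625/62.5/250 g/ha in acetone:water 50:50 + 0.5% Tween 20; grow on, water twice daily; score damage 0–100 at 13 d.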

[2] = tested on: redroot pigweed (Amaranthus retroflexus); assay: Test G Post-Emergence Protocol; conditions: Amaranthus retroflexus, post-emergence, 312 h, read-out: Pigweed, Redroot damage rating; for pest or weed control at 15.625 g/ha: 15.625 g ai/ha, evaluated after 13 days (100=total damage to plant; 0=no damage to plant); for pest or weed control at 62.5 g/ha: 62.5 g ai/ha; for pest or weed control at 62.5 g/ha / pest or weed control at 250 g/ha: evaluated after 13 days, 100=total damage to plant, 0=no damage to plant; for pest or weed control at 250 g/ha: 250 g ai/ha
Procedure, shortened: as §1

[3] = tested on: ivy-leaved morning glory (Ipomoea hederacea); assay: Test G Post-Emergence Protocol; conditions: Ipomoea, post-emergence, 312 h, read-out: Morningglory, Ivy-leaved damage rating; for pest or weed control at 15.625 g/ha: 15.625 g ai/ha, evaluated after 13 days (100=total damage to plant; 0=no damage to plant); for pest or weed control at 62.5 g/ha: 62.5 g ai/ha; for pest or weed control at 62.5 g/ha / pest or weed control at 250 g/ha: evaluated after 13 days, 100=total damage to plant, 0=no damage to plant; for pest or weed control at 250 g/ha: 250 g ai/ha
Procedure, shortened: as §1

[4] = tested on: velvetleaf (Abutilon theophrasti); assay: Test G Post-Emergence Protocol; conditions: Abutilon theophrasti, post-emergence, 312 h, read-out: Velvetleaf damage rating; for pest or weed control at 15.625 g/ha: 15.625 g ai/ha, evaluated after 13 days (100=total damage to plant; 0=no damage to plant); for pest or weed control at 62.5 g/ha: 62.5 g ai/ha; for pest or weed control at 62.5 g/ha / pest or weed control at 250 g/ha: evaluated after 13 days, 100=total damage to plant, 0=no damage to plant; for pest or weed control at 250 g/ha: 250 g ai/ha
Procedure, shortened: as §1

[5] = tested on: giant foxtail (Setaria faberi); assay: Test G Post-Emergence Protocol; conditions: Setaria faberi, post-emergence, 312 h, read-out: Foxtail, Giant damage rating; for pest or weed control at 15.625 g/ha: 15.625 g ai/ha, evaluated after 13 days (100=total damage to plant; 0=no damage to plant); for pest or weed control at 62.5 g/ha: 62.5 g ai/ha; for pest or weed control at 62.5 g/ha / pest or weed control at 250 g/ha: evaluated after 13 days, 100=total damage to plant, 0=no damage to plant; for pest or weed control at 250 g/ha: 250 g ai/ha
Procedure, shortened: as §1

[6] = tested on: barnyardgrass (Echinochloa crus-galli); assay: Test G Post-Emergence Protocol; conditions: Echinochloa crus-galli, post-emergence, 312 h, read-out: Barnyardgrass damage rating; for pest or weed control at 15.625 g/ha: 15.625 g ai/ha, evaluated after 13 days (100=total damage to plant; 0=no damage to plant); for pest or weed control at 62.5 g/ha: 62.5 g ai/ha; for pest or weed control at 62.5 g/ha / pest or weed control at 250 g/ha: evaluated after 13 days, 100=total damage to plant, 0=no damage to plant; for pest or weed control at 250 g/ha: 250 g ai/ha
Procedure, shortened: as §1

corn (Zea mays) [7] = assay: Test G Pre-Emergence Protocol; conditions: Zea mays, pre-emergence, 312 h, evaluated after 13 days; for plant injury at 15.625 g/ha: 15.625 g ai/ha; for plant injury at 15.625 g/ha / plant injury at 250 g/ha: read-out: Corn damage rating (100=total damage to plant; 0=no damage to plant); for plant injury at 62.5 g/ha: 62.5 g ai/ha, 100=total damage to plant, 0=no damage to plant, read-out: Corn damage rating; for plant injury at 250 g/ha: 250 g ai/ha
Procedure, shortened: (§2)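 Scores are visual damage ratings from 0 (no damage) to 100 (total plant kill), taken 13 days after treatment. Compound was sprayed one day post-sowing at 15.625, 62.5 or 250 g/ha in 50:50 acetone/water with 0.5% Tween 20.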

[8] = tested on: redroot pigweed (Amaranthus retroflexus); assay: Test G Pre-Emergence Protocol; conditions: Amaranthus retroflexus, pre-emergence, 312 h, evaluated after 13 days; for pest or weed control at 15.625 g/ha: 15.625 g ai/ha; for pest or weed control at 15.625 g/ha / pest or weed control at 250 g/ha: read-out: Pigweed, Redroot damage rating (100=total damage to plant; 0=no damage to plant); for pest or weed control at 62.5 g/ha: 62.5 g ai/ha, 100=total damage to plant, 0=no damage to plant, read-out: Pigweed, Redroot damage rating; for pest or weed control at 250 g/ha: 250 g ai/ha
Procedure, shortened: as §2

[9] = tested on: ivy-leaved morning glory (Ipomoea hederacea); assay: Test G Pre-Emergence Protocol; conditions: Ipomoea, pre-emergence, 312 h, evaluated after 13 days; for pest or weed control at 15.625 g/ha: 15.625 g ai/ha; for pest or weed control at 15.625 g/ha / pest or weed control at 250 g/ha: read-out: Morningglory, Ivy-leaved damage rating (100=total damage to plant; 0=no damage to plant); for pest or weed control at 62.5 g/ha: 62.5 g ai/ha, 100=total damage to plant, 0=no damage to plant, read-out: Morningglory, Ivy-leaved damage rating; for pest or weed control at 250 g/ha: 250 g ai/ha
Procedure, shortened: as §2

[10] = tested on: velvetleaf (Abutilon theophrasti); assay: Test G Pre-Emergence Protocol; conditions: Abutilon theophrasti, pre-emergence, 312 h, evaluated after 13 days; for pest or weed control at 15.625 g/ha: 15.625 g ai/ha; for pest or weed control at 15.625 g/ha / pest or weed control at 250 g/ha: read-out: Velvetleaf damage rating (100=total damage to plant; 0=no damage to plant); for pest or weed control at 62.5 g/ha: 62.5 g ai/ha, 100=total damage to plant, 0=no damage to plant, read-out: Velvetleaf damage rating; for pest or weed control at 250 g/ha: 250 g ai/ha
Procedure, shortened: as §2

[11] = tested on: giant foxtail (Setaria faberi); assay: Test G Pre-Emergence Protocol; conditions: Setaria faberi, pre-emergence, 312 h, evaluated after 13 days; for pest or weed control at 15.625 g/ha: 15.625 g ai/ha; for pest or weed control at 15.625 g/ha / pest or weed control at 250 g/ha: read-out: Foxtail, Giant damage rating (100=total damage to plant; 0=no damage to plant); for pest or weed control at 62.5 g/ha: 62.5 g ai/ha, 100=total damage to plant, 0=no damage to plant, read-out: Foxtail, Giant damage rating; for pest or weed control at 250 g/ha: 250 g ai/ha
Procedure, shortened: as §2

[12] = tested on: barnyardgrass (Echinochloa crus-galli); assay: Test G Pre-Emergence Protocol; conditions: Echinochloa crus-galli, pre-emergence, 312 h, evaluated after 13 days; for pest or weed control at 15.625 g/ha: 15.625 g ai/ha; for pest or weed control at 15.625 g/ha / pest or weed control at 250 g/ha: read-out: Barnyardgrass damage rating (100=total damage to plant; 0=no damage to plant); for pest or weed control at 62.5 g/ha: 62.5 g ai/ha, 100=total damage to plant, 0=no damage to plant, read-out: Barnyardgrass damage rating; for pest or weed control at 250 g/ha: 250 g ai/ha
Procedure, shortened: as §2

Row | SMILES | plant injury at 15.625 g/ha (corn (Zea mays) [1]) | plant injury at 62.5 g/ha (corn (Zea mays) [1]) | plant injury at 250 g/ha (corn (Zea mays) [1]) | pest or weed control at 15.625 g/ha [2] | pest or weed control at 62.5 g/ha [2] | pest or weed control at 250 g/ha [2] | pest or weed control at 15.625 g/ha [3] | pest or weed control at 62.5 g/ha [3] | pest or weed control at 250 g/ha [3] | pest or weed control at 15.625 g/ha [4] | pest or weed control at 62.5 g/ha [4] | pest or weed control at 250 g/ha [4] | pest or weed control at 15.625 g/ha [5] | pest or weed control at 62.5 g/ha [5] | pest or weed control at 250 g/ha [5] | pest or weed control at 15.625 g/ha [6] | pest or weed control at 62.5 g/ha [6] | pest or weed control at 250 g/ha [6] | plant injury at 15.625 g/ha (corn (Zea mays) [7]) | plant injury at 62.5 g/ha (corn (Zea mays) [7]) | other results
1 | Cc1c(F)cccc1NC(=O)[C@@H]1C(=O)N(C)C[C@H]1c1cccc(C(C)(C)F)c1 (racemic) [Compound 1827] | 0% | 10% | 60% | 0% | 0% | 0% | 0% | 10% | 10% | 0% | 0% | 40% | 50% | 80% | 80% | 0% | 70% | 80% | 0% | 0% | plant injury at 250 g/ha (corn (Zea mays) [7]): 50%; pest or weed control at 15.625 g/ha [8]: 0%; pest or weed control at 62.5 g/ha [8]: 0%; pest or weed control at 250 g/ha [8]: 0%; pest or weed control at 15.625 g/ha [9]: 0%; pest or weed control at 62.5 g/ha [9]: 0%; pest or weed control at 250 g/ha [9]: 20%; pest or weed control at 15.625 g/ha [10]: 0%; pest or weed control at 62.5 g/ha [10]: 0%; pest or weed control at 250 g/ha [10]: 10%; pest or weed control at 15.625 g/ha [11]: 40%; pest or weed control at 62.5 g/ha [11]: 90%; pest or weed control at 250 g/ha [11]: 90%; pest or weed control at 15.625 g/ha [12]: 0%; pest or weed control at 62.5 g/ha [12]: 80%; pest or weed control at 250 g/ha [12]: 90%
2 | CN1C[C@@H](c2ccc(C(F)(F)F)cc2)[C@H](C(=O)Nc2ccc(F)nc2F)C1=O (racemic) [Compound 1650] | 10% | 50% | 70% | 10% | 70% | 80% | 20% | 10% | 20% | 0% | 20% | 40% | 70% | 80% | 80% | 40% | 80% | 80% | 0% | 0% | plant injury at 250 g/ha (corn (Zea mays) [7]): 80%; pest or weed control at 15.625 g/ha [8]: 0%; pest or weed control at 62.5 g/ha [8]: 70%; pest or weed control at 250 g/ha [8]: 80%; pest or weed control at 15.625 g/ha [9]: 0%; pest or weed control at 62.5 g/ha [9]: 0%; pest or weed control at 250 g/ha [9]: 0%; pest or weed control at 15.625 g/ha [10]: 0%; pest or weed control at 62.5 g/ha [10]: 0%; pest or weed control at 250 g/ha [10]: 50%; pest or weed control at 15.625 g/ha [11]: 40%; pest or weed control at 62.5 g/ha [11]: 90%; pest or weed control at 250 g/ha [11]: 90%; pest or weed control at 15.625 g/ha [12]: 10%; pest or weed control at 62.5 g/ha [12]: 70%; pest or weed control at 250 g/ha [12]: 90%
